Experimental findings from ChEMBL document CHEMBL1122438, “2-Phenylpyrazolo[1,5-a]pyrimidin-7-ones. A new class of nonsteroidal antiinflammatory drugs devoid of ulcerogenic activity” (J Med Chem, 1983) are described below.

Active and inactive are the calls of the source. The rule behind the calls is not given here.

Experiment [1] relates to Rattus norvegicus. The experiment in a line: Percent reduction of edema in rat on 23rd day after oral administration of 300 mg/kg in antiarthritis assay; i = Inactive. The class given is functional, organism-based. Further details: dose 300 mg/kg. Particulars: at 300 mg/kg.
Experiment [2] concerns Mus musculus. The experiment in a line: Percent reduction of edema in mice 3h after oral administration of 300 mg/kg in carrageenan model. The class given is functional.
Experiment [3] concerns Mus musculus. The experiment in a line: Percent reduction of edema in mice 3h after oral administration of 30 mg/kg in carrageenan model. The class given is functional.
Experiment [4] has as its system Rattus norvegicus. In words: Percent reduction of edema in rat on 23rd day after oral administration of 30 mg/kg in antiarthritis assay; i = Inactive. Format: functional, organism-based. Particulars: at 30 mg/kg. Set-up: dose 30 mg/kg.
Experiment [5] relates to Rattus norvegicus. The experiment in a line: Percent reduction of edema in rat on 23rd day after oral administration of 20 mg/kg in antiarthritis assay; i = Inactive. The class given is functional, organism-based. Set-up: dose 20 mg/kg. Particulars: at 20 mg/kg.
The test system of experiment [6] is Mus musculus. In words: Percent reduction of edema in mice 3h after oral administration of 20 mg/kg in carrageenan model. The class given is functional.
Experiment [7] has as its system Rattus norvegicus. The experiment in a line: Percent reduction of edema in rat on 23rd day after oral administration of 20 mg/kg in antiarthritis assay. Format: functional.

With `Oc1ccnc2cc(-c3ccccc3)nn12`, the Reduction result in the experiment with Rattus norvegicus [1] is “inactive”. This molecule registered a Reduction with Mus musculus [2] of 27.3%.
In the experiment on Mus musculus [3], `O=c1ccn(CCO)c2cc(-c3ccccc3)nn12` yielded a Reduction of 16.5%. Further, the Reduction entry with Rattus norvegicus [4] was “inactive”.
On the same counts, the results for `CCn1ccc(=O)n2nc(C)cc12` are 7.3% and “inactive”.
On the same counts, the results for `CCn1ccc(=O)n2nc(-c3ccccc3)c(SSc3c(-c4ccccc4)nn4c(=O)ccn(CC)c34)c12` are 37.5% and “inactive”.
On the same counts, the results for `CCn1ccc(=O)n2nc(-c3ccccc3)c(N=O)c12` are 7.03% and “inactive”.
Molecule `CCOC(=O)/C=C/n1ccc(=O)n2nc(-c3ccccc3)cc12` displayed a Reduction in the experiment with Mus musculus [3] of 23.4%. Further, in the experiment with Rattus norvegicus [4], the Reduction entry is “inactive”.
As to `Cc1cn(C)c2cc(-c3ccccc3)nn2c1=O`, the Reduction entry with Rattus norvegicus [1] was “inactive”. Besides, in the experiment on Mus musculus [2], the Reduction is on record as 68.7%.
For `CC(C)n1ccc(=O)n2nc(-c3ccccc3)cc12`, in the experiment with Rattus norvegicus [5], the Reduction result was “inactive”. In the experiment with Mus musculus [6], this molecule had a Reduction of 3.5%.
Regarding `CCn1cc(Br)c(=O)n2nc(-c3ccccc3)c(Br)c12`, the Reduction with Mus musculus [3] is 0%. In the experiment with Rattus norvegicus [4], the Reduction entry is “inactive”.
As to `O=c1ccn(Cc2ccccc2)c2cc(-c3ccccc3)nn12`, the Reduction with Mus musculus [6] is on record as 5.8%; with Rattus norvegicus [7], 18.2%.
In the experiment on Mus musculus [3], `CCn1ccc(=O)n2nc(-c3ccccc3)c(SC#N)c12` returned a Reduction of 42.2%. Further, the Reduction entry in the experiment on Rattus norvegicus [4] is “inactive”.
`CCOC(Cn1ccc(=O)n2nc(-c3ccccc3)cc12)OCC`: the Reduction result with Rattus norvegicus [5] is “inactive”. The molecule also had a Reduction in the experiment with Mus musculus [6] of 12.5%.
The molecule `CCn1ccc(=O)n2nc(-c3ccc(C)cc3)cc12` gave a Reduction in the experiment with Mus musculus [3] of 35.9%. Besides, the Reduction result with Rattus norvegicus [4] was “inactive”.
As to `CCn1ccc(=O)n2nc(-c3ccccc3)c(Br)c12`, the Reduction in the experiment on Mus musculus [3] is on record as 40.5%. The Reduction result in the experiment with Rattus norvegicus [4] was “inactive”.
For the molecule `CCCCn1ccc(=O)n2nc(-c3ccccc3)cc12`, the Reduction in the experiment on Mus musculus [6] stood at 26.6%; in the experiment with Rattus norvegicus [7], 59.8%.
In the experiment with Mus musculus [3], `CCCn1c(=O)ccn2nc(-c3ccccc3)cc12` displayed a Reduction of 18.9%. In the experiment on Rattus norvegicus [4], the Reduction result is “inactive”.
Regarding `Cn1ccc(=O)n2nccc12`, in the experiment on Rattus norvegicus [5], the Reduction result was “inactive”. Also, the Reduction in the experiment on Mus musculus [6] was 0%.
